Laboratory results taken from the kinase profiling compilation of Christmann-Franck et al. (2016).

Experiments:
Assay in all cases: KINOMEscan competition binding
Conditions in all cases: compound 10.0 µM
[1] = molecular target: PAK7 (human) (UniProt Q9P286)
[2] = molecular target: EPHA8 (human) (UniProt P29322)
[3] = molecular target: MAP4K1 (human) (UniProt Q92918)
[4] = molecular target: STK38L (human) (UniProt Q9Y2H1)
[5] = molecular target: TAOK3 (human) (UniProt Q9H2K8)
[6] = molecular target: PAK4 (human) (UniProt O96013)
[7] = molecular target: NTRK1 (human) (UniProt P04629)
[8] = molecular target: BLK (human) (UniProt P51451)
[9] = molecular target: MAP2K4 (human) (UniProt P45985)
[10] = molecular target: MINK1 (human) (UniProt Q8N4C8)
[11] = molecular target: FGFR3 (human) (UniProt P22607)
[12] = molecular target: MAP3K10 (human) (UniProt Q02779)
[13] = molecular target: RPS6KA1 KD1 (human) (UniProt Q15418)
[14] = molecular target: DYRK1B (human) (UniProt Q9Y463)
[15] = molecular target: SRMS (human) (UniProt Q9H3Y6)
[16] = molecular target: CSNK1G1 (human) (UniProt Q9HCP0)
[17] = molecular target: SLK (human) (UniProt Q9H2G2)
[18] = molecular target: FER (human) (UniProt P16591)
[19] = molecular target: DCLK1 (human) (UniProt O15075)
[20] = molecular target: TTK (human) (UniProt P33981)
[21] = molecular target: MAP2K2 (human) (UniProt P36507)
[22] = molecular target: MAPK10 (human) (UniProt P53779)
[23] = molecular target: STK32B (human) (UniProt Q9NY57)
[24] = molecular target: PDGFRA (human) (UniProt P16234)
[25] = molecular target: BMPR1B (human) (UniProt O00238)
[26] = molecular target: NTRK3 (human) (UniProt Q16288)
[27] = molecular target: MLTK (human) (UniProt Q9NYL2)
[28] = molecular target: LCK (human) (UniProt P06239)
[29] = molecular target: GAK (human) (UniProt O14976)
[30] = molecular target: GSK3B (human) (UniProt P49841)
[31] = molecular target: EPHA1 (human) (UniProt P21709)
[32] = molecular target: STK16 (human) (UniProt O75716)
[33] = molecular target: FGFR2 (human) (UniProt P21802)
[34] = molecular target: MKNK2 (human) (UniProt Q9HBH9)
[35] = molecular target: MAP2K6 (human) (UniProt P52564)
[36] = molecular target: PIM2 (human) (UniProt Q9P1W9)
[37] = test system: EIF2AK4 KD2 (human), Q9P2K8 [S808G]
[38] = molecular target: FES (human) (UniProt P07332)
[39] = molecular target: RPS6KA3 KD1 (human) (UniProt P51812)
[40] = molecular target: FLT3 (human) (UniProt P36888)

Chain of DYRK1B (human) (Q9Y463 whole entry, looked up): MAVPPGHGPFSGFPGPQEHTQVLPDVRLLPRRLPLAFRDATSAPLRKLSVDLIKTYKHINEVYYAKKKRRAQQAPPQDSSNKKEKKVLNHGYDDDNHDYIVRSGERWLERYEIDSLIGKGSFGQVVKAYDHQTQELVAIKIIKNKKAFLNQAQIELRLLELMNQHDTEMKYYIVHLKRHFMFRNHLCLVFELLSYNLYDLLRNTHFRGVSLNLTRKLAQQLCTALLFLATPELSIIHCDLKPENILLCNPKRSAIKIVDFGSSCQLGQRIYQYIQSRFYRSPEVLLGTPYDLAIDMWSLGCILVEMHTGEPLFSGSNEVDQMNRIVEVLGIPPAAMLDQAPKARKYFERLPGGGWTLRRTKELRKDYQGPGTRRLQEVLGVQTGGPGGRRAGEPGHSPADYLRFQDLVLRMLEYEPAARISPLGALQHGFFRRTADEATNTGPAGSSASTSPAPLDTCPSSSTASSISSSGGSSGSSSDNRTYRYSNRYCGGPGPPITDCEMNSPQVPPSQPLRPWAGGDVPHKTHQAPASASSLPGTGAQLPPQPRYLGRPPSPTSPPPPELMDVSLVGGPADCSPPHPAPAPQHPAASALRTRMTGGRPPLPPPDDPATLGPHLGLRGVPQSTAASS
Chain of MINK1 (human) (Q8N4C8 whole entry, looked up): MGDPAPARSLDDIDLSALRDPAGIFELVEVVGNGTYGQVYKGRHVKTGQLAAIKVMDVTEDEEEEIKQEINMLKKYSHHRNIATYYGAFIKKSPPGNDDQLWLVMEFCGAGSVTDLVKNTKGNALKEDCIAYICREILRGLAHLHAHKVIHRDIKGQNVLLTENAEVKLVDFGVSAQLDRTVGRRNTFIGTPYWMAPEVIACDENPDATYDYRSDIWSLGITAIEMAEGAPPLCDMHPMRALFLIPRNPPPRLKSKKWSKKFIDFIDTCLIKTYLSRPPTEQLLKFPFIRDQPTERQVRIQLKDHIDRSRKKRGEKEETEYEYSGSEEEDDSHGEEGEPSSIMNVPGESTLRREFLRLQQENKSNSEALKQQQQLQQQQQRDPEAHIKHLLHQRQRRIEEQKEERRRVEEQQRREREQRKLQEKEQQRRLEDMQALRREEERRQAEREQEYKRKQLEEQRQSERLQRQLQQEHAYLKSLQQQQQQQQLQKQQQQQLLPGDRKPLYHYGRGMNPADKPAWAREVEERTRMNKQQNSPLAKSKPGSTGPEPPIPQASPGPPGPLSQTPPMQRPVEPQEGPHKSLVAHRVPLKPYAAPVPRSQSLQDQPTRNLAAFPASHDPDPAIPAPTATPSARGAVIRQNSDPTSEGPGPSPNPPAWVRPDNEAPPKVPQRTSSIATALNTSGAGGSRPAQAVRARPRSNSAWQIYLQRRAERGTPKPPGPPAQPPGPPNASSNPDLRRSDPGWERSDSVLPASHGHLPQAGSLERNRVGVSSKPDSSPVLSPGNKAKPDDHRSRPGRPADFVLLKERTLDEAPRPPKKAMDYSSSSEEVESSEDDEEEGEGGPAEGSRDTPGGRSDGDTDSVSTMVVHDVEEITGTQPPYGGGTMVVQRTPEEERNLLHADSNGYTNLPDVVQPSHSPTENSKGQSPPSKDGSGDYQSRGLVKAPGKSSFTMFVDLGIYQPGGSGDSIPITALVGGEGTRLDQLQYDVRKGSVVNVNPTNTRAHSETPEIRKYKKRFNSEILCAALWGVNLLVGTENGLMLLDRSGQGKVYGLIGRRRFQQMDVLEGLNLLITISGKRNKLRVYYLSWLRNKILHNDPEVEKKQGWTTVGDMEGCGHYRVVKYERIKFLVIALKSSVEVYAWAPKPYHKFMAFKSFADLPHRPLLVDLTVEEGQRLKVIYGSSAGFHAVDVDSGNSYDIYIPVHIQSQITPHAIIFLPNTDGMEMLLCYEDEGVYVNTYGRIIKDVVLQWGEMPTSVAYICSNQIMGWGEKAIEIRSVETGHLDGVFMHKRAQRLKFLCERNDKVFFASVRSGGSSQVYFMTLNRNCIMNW
Chain of PAK7 (human) (Q9P286 whole entry, looked up): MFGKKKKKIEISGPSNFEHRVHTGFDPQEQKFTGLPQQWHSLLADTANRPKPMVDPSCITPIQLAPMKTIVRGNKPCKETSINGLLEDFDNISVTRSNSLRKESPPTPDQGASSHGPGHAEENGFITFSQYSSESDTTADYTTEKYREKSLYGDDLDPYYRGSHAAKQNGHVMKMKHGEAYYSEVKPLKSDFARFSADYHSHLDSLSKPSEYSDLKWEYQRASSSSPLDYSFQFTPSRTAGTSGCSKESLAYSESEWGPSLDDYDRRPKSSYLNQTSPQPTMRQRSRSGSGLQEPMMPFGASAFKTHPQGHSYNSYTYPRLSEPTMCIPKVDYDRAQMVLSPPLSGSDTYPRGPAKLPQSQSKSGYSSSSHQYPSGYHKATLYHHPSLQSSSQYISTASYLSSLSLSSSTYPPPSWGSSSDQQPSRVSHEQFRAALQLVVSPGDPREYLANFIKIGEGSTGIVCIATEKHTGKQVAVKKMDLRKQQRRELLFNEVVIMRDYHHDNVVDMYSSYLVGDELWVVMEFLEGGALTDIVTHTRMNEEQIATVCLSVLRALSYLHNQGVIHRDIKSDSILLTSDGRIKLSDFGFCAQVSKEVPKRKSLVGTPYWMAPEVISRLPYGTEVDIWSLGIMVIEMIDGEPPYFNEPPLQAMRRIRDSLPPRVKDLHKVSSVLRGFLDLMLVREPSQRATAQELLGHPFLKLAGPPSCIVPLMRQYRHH
Chain of BLK (human) (P51451 whole entry, looked up): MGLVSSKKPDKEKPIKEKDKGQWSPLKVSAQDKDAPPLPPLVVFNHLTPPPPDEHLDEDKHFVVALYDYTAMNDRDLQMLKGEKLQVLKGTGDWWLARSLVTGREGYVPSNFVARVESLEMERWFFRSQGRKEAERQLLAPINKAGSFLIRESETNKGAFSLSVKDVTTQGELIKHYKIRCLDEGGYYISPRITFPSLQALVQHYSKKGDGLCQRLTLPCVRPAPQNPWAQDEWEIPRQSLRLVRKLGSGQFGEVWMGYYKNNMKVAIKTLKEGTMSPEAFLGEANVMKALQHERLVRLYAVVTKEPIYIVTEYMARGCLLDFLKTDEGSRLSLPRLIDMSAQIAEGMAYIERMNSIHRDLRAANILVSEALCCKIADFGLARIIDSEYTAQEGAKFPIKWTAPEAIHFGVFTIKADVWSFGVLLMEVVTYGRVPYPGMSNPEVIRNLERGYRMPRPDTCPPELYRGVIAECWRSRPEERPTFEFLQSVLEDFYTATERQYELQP
Chain of MAP3K10 (human) (Q02779 whole entry, looked up): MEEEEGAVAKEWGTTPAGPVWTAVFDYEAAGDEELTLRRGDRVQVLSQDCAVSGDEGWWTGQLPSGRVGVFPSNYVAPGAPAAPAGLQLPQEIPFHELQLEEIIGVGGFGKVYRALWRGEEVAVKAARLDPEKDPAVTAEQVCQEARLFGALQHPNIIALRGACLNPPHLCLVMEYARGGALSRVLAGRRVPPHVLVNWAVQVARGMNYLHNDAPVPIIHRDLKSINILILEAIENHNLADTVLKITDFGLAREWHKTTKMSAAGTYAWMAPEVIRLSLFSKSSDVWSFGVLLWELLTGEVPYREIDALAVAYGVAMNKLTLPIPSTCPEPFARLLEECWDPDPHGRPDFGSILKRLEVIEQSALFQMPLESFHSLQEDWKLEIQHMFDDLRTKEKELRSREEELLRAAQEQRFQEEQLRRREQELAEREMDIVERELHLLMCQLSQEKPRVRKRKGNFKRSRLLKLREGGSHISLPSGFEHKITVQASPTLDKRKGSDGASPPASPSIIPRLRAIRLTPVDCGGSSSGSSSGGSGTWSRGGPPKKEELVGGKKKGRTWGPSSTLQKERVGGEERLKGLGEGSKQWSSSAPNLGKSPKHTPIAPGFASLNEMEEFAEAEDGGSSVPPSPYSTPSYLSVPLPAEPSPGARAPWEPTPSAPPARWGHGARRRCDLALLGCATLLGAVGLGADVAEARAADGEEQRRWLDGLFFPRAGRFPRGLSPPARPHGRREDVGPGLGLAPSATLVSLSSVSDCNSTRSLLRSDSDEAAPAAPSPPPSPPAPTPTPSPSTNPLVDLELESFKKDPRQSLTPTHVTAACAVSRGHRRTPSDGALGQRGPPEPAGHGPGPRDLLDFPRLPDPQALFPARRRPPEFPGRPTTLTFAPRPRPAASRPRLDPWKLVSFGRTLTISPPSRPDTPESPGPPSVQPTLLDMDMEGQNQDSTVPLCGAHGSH
Chain of STK32B (human) (Q9NY57 whole entry, looked up): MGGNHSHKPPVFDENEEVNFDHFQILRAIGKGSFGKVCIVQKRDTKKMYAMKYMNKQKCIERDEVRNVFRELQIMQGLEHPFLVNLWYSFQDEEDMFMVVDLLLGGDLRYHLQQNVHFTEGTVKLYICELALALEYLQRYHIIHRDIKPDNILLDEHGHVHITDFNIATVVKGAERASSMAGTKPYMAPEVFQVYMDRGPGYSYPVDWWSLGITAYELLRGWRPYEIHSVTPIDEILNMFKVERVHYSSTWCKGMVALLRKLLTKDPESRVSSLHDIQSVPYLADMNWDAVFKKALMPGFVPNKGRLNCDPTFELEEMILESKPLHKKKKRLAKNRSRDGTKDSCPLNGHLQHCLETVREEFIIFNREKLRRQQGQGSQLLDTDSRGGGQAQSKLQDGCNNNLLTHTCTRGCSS
Chain of CSNK1G1 (human) (Q9HCP0 whole entry, looked up): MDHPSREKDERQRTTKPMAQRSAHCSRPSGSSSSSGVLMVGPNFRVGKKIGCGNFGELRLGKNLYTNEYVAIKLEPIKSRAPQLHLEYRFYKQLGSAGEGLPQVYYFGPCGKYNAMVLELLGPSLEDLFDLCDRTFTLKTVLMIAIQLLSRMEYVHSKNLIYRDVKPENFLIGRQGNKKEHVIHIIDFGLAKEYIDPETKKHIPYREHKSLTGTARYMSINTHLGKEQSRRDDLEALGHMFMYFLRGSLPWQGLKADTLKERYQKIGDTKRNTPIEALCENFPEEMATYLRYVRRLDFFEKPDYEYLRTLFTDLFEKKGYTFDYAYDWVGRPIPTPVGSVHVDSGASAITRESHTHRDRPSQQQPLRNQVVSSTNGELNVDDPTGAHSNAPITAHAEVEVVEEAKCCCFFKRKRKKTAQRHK

Row | SMILES | kinase still bound, per cent of control [1] [%] | kinase still bound, per cent of control [2] [%] | kinase still bound, per cent of control [3] [%] | kinase still bound, per cent of control [4] [%] | kinase still bound, per cent of control [5] [%] | kinase still bound, per cent of control [6] [%] | kinase still bound, per cent of control [7] [%] | kinase still bound, per cent of control [8] [%] | kinase still bound, per cent of control [9] [%] | kinase still bound, per cent of control [10] [%] | kinase still bound, per cent of control [11] [%] | kinase still bound, per cent of control [12] [%] | kinase still bound, per cent of control [13] [%] | kinase still bound, per cent of control [14] [%] | kinase still bound, per cent of control [15] [%] | kinase still bound, per cent of control [16] [%] | kinase still bound, per cent of control [17] [%] | kinase still bound, per cent of control [18] [%] | kinase still bound, per cent of control [19] [%] | kinase still bound, per cent of control [20] [%] | also measured
1 | Cc1ccc(NC(=O)c2cccc(C(C)(C)C#N)c2)cc1Nc1ccc2ncn(C)c(=O)c2c1 | 100 | 2.1 | 63 | 100 | 100 | 72 | 98 | 1 | 100 | 7.2 | 100 | 100 | 85 | 100 | 7.4 | 88 | 68 | 100 | 97 | 95 | kinase still bound, per cent of control [21]: 100%; kinase still bound, per cent of control [22]: 73%; kinase still bound, per cent of control [23]: 100%; kinase still bound, per cent of control [24]: 0.1%; kinase still bound, per cent of control [25]: 82%; kinase still bound, per cent of control [26]: 38%; kinase still bound, per cent of control [27]: 6.5%; kinase still bound, per cent of control [28]: 0.7%; kinase still bound, per cent of control [29]: 99%; kinase still bound, per cent of control [30]: 95%; kinase still bound, per cent of control [31]: 10%; kinase still bound, per cent of control [32]: 83%; kinase still bound, per cent of control [33]: 55%; kinase still bound, per cent of control [34]: 99%; kinase still bound, per cent of control [35]: 100%; kinase still bound, per cent of control [36]: 100%; kinase still bound, per cent of control [37]: 85%; kinase still bound, per cent of control [38]: 43%; kinase still bound, per cent of control [39]: 90%; kinase still bound, per cent of control [40]: 61%
2 | COc1cc(C(=O)NC2CCN(C)CC2)ccc1Nc1ncc2c(n1)N(C1CCCC1)C(C)CC(=O)N2C (stereo not given) | 100 | 100 | 100 | 100 | 100 | 100 | 100 | 100 | 100 | 100 | 100 | 100 | 100 | 100 | 100 | 100 | 1.4 | 31 | 4 | 4.6 | kinase still bound, per cent of control [21]: 100%; kinase still bound, per cent of control [22]: 100%; kinase still bound, per cent of control [23]: 100%; kinase still bound, per cent of control [24]: 100%; kinase still bound, per cent of control [25]: 100%; kinase still bound, per cent of control [26]: 100%; kinase still bound, per cent of control [27]: 100%; kinase still bound, per cent of control [28]: 100%; kinase still bound, per cent of control [29]: 3.8%; kinase still bound, per cent of control [30]: 100%; kinase still bound, per cent of control [31]: 100%; kinase still bound, per cent of control [32]: 100%; kinase still bound, per cent of control [33]: 100%; kinase still bound, per cent of control [34]: 100%; kinase still bound, per cent of control [35]: 100%; kinase still bound, per cent of control [36]: 100%; kinase still bound, per cent of control [37]: 100%; kinase still bound, per cent of control [38]: 100%; kinase still bound, per cent of control [39]: 100%; kinase still bound, per cent of control [40]: 100%
